This is an account of results in patent publication US10390553B2, “Food containing histidine and use thereof” (AJINOMOTO CO., INC., priority 2013, dated 2019).

SMILES strings stand for the structures.

For assay [1], the system named is CD2F1 mice after burden of insufficient sleep. The assay is described as follows: Locomotor activities in the dark phase after burden of insufficient sleep, continuous histidine administration. It is filed as in vivo, mouse. As to conditions: 1.2 w/v % L-histidine solution drunk for 7 days, 1.2 g/kg body weight/day; SD+His vs SD+solvent. The text has this:
Using CD2F1 mice (9-week-old) and as shown in the experiment protocol of FIG. 1A, the mice were chronically allowed to drink a 1.2 w/v % L-histidine solution for 7 days in the histidine ingestion group (SD+His) to achieve a dose of 1.2 g/kg body weight/day. Water was given to the control group (CON) and the solvent ingestion group (SD+solvent). Then, the sleep disorder group (SD) was burdened by insufficient sleep for one day by filling water in the breeding cage at the depth of 0.5 cm. The burden was released at 6 hr from the start of the light phase (ZT6), and the mice were placed back in the home cage and allowed to rest for 6 hr. The control group was reared without burden in the home cage. Thereafter, they were transferred into a cage set under a locomotor activity measurement infrared sensor (Digital acquisition system; NS-DAS-32, Neuroscience Inc, Tokyo, Japan) under fasting and water-deprivation. The locomotor activities were measured and the data was collected by a multidigital counter (Neuroscience Inc, Tokyo, Japan).

Assay [2] has as its system males feeling decrease in the quality of sleep and fatigue. The assay is described as follows: VAS questionnaires relating to mental energy, single histidine ingestion. It is filed as in vivo, human. As to conditions: single ingestion 1.65 g. The text has this: (§1) Twenty males of 45 years old to less than 65 years old, who received total evaluation of not less than 17 points in the “self-diagnosis fatigue questionnaire” (Fatigue Science Laboratory Inc.) performed in advance, felt decrease in the quality of sleep (generally PSQI≥6), and obtained fatigue factor T scores of not less than 60 points in POMS, were selected, and randomly divided into 2 groups (10 per group). The effect of single ingestion of histidine and control food (equal volume of cellulose) was compared in each group. As shown in the experiment protocol of FIG. 5A, the test subjects took the same meals for 3 days before the experiment, fasted for 10 to 14 hr, and ingested capsules containing 1.65 g of L-histidine as a single ingestion amount (5 capsules (hard capsule #2 WHITE OP B/C) containing 0.33 g of L-histidine alone), or control sample capsules (5 capsules containing equal volume of cellulose). Before and 1 hr after ingestion of capsules, the test subjects answered the VAS questionnaires (fatigue, depression, vague sense, drowsiness, clear thinking, motivation, attentiveness, concentration) relating to mental energy, and cognitive function measurement task CogHealth (under conditions with higher difficulty by simultaneously including mental arithmetic task as well) to measure recognition. Furthermore, they answered VAS questionnaires after completion of CogHealth.

In assay [3] the test system is males feeling decrease in the sleep quality and fatigue. The assay is described as follows: POMS after histidine ingestion for 14 days (crossover vs control food). It counts as in vivo, human. As to conditions: 1.65 g L-histidine daily for 14 days vs control food; paired t-test p<0.05. The text has this: (§2) Twenty males of 45 years old to less than 65 years old, who received total evaluation of not less than 17 points in the “self-diagnosis fatigue questionnaire” (Fatigue Science Laboratory Inc.) performed in advance, felt decrease in the quality of sleep (generally PSQI≥6), and obtained fatigue factor T scores of not less than 60 points in POMS, were selected, and randomly divided into 2 groups (10 per group). A crossover test, including ingesting histidine and control food (equal volume of cellulose) each for 14 days, was performed in each group. As shown in the experiment protocol of FIG. 4A, the test subjects ingested capsules containing 1.65 g of L-histidine as a daily ingestion amount (5 capsules (hard capsule #2 WHITE OP B/C) containing 0.33 g of L-histidine alone), or control sample capsules (5 capsules containing equal volume of cellulose) for 14 days. After the completion of 14 day ingestion, a 14 day resting period was taken. After the resting period, they ingested the capsules not ingested before the resting period. […]

For assay [4] the test system is unchanged. The assay is described as follows: VAS questionnaires relating to mental energy, histidine ingestion for 14 days. It is filed as in vivo, human. As to conditions: 1.65 g daily for 14 days vs control food, p<0.05. The text has this: Twenty males of 45 years old to less than 65 years old, who received total evaluation of not less than 17 points in the “self-diagnosis fatigue questionnaire” (Fatigue Science Laboratory Inc.) performed in advance, felt decrease in the quality of sleep (generally PSQI≥6), and obtained fatigue factor T scores of not less than 60 points in POMS, were selected, and randomly divided into 2 groups (10 per group). A crossover test, including ingesting histidine and control food (equal volume of cellulose) each for 14 days, was performed in each group. As shown in the experiment protocol of FIG. 4A, the test subjects ingested capsules containing 1.65 g of L-histidine as a daily ingestion amount (5 capsules (hard capsule #2 WHITE OP B/C) containing 0.33 g of L-histidine alone), or control sample capsules (5 capsules containing equal volume of cellulose) for 14 days. After the completion of 14 day ingestion, a 14 day resting period was taken. After the resting period, they ingested the capsules not ingested before the resting period. On the initial day and the day after completion of the capsule ingestion period, the test subjects answered POMS and the VAS questionnaires (fatigue, depression, vague sense, drowsiness, clear thinking, motivation, attentiveness, concentration) relating to mental energy, and cognitive function measurement task CogHealth (under higher difficulty conditions by simultaneously including mental arithmetic task as well) to measure recognition. Furthermore, they answered VAS questionnaires after completion of CogHealth.

Assay [5] has as its system males feeling decrease in the quality of sleep and fatigue. The assay is described as follows: Cognitive function measurement task CogHealth, single histidine ingestion. As to conditions: single ingestion 1.65 g, 1 hr after ingestion, vs control food. It counts as in vivo, human.
From the text: as §1

The test system of assay [6] is CD2F1 mice after burden of insufficient sleep. The experiment in a line: Y-maze test, short-working memory after burden of insufficient sleep, single histidine administration. As to conditions: single oral dose 1.2 g/kg body weight at ZT14; Y-maze at ZT15; SD+His vs SD+solvent. It counts as in vivo, mouse. From the text:
Using CD2F1 mice (9-week-old) and as shown in the experiment protocol of FIG. 3A, a burden of insufficient sleep is applied to sleep disorder group (SD) for two days. The burden was released at ZT6, and the mice were placed back in the home cage and allowed to rest for 6 hr. The control group (CON) was reared without burden in the home cage. A L-histidine solution was orally administered to a histidine administration group (SD+His) at 2 hr after the start of the dark phase after burden of insufficient sleep (ZT14), to achieve an L-histidine dose of 1.2 g/kg body weight. A solvent (water) was orally administered to the solvent administration group (SD+solvent) and the control group (CON). The Y-maze test was performed at 3 hr from the start of the dark phase (ZT15), and short-working memory was measured.

Assay [7] deals with males feeling decrease in the sleep quality and fatigue. The experiment in a line: Cognitive function measurement task CogHealth, histidine ingestion for 14 days. It counts as in vivo, human. As to conditions: 1.65 g daily for 14 days vs control food.
From the text: as §2

Setting [8] is: 1 hr after ingestion, before cognitive functioning test, p<0.05.
The mark [9] stands for this setting: before cognitive functioning test.

Turning to `N[C@@H](Cc1c[nH]cn1)C(=O)O` [histidine, L-histidine], the “locomotor activities in the dark phase” value in assay [1] is reported as “significant suppression of a decrease of locomotor activities in the dark phase”. Besides, in assay [2] (1 hr after ingestion, before cognitive functioning test), the “VAS sense of concentration” value is given as “tended to increase”. In assay [2] (setting [8]), the “VAS sense of attentiveness” value is listed as “significantly increased” and the “VAS sense of clear thinking” value is listed as “significantly increased”. In assay [2] (after completion of CogHealth), the “VAS sense of concentration” value was “tended to increase” and the “VAS sense of depression” value is reported as “tended to decrease”. For the same compound, the “VAS sense of vagueness” value in assay [2] (after completion of CogHealth, p<0.05) is “significantly decreased”. The “fatigue factor scores of POMS” value in assay [3] was “significantly decreased”. Further, in assay [4] (after completion of CogHealth), the “VAS sense of attentiveness” value was “significantly increased”, the “VAS sense of depression” value was “significantly decreased” and the “VAS sense of motivation” value was “significantly increased”. Moreover, in assay [4] (setting [9]), the “VAS sense of attentiveness” value is “significantly increased”, the “VAS sense of clear thinking” value is “significantly increased” and the “VAS sense of motivation” value is on record as “significantly increased”. In assay [5], the “indices relating to cognition” value is on record as “did not show a significant change” and the “work time in 5 kinds of brain function measurement indices” value is recorded as “shortened”. The “alternation behavior (short-working memory)” value in assay [6] is “significant suppression of a decrease of alternation behavior”. Also, the “reaction time of cognitive function measurement task” value in assay [7] is “shortened”. In assay [7] (paired t-test p<0.05), the “reaction time of delayed recall task” value was “significantly decreased”.
